Experiment [1] deals with HDAC activity of HeLa nuclear extract. Kind of experiment: Fluor de Lys-Green HDAC assay kit, HDAC inhibition. In kind it is biochemical. As to the method:
HeLa nuclear extract, rich in HDAC activity, is included with the kit. Trichostatin A solution was used as a positive control and model inhibitor. Plates were read with excitation at 380 nm and emission at 440 nm on a TECAN Spark multimode microplate reader. Histone deacetylase activity was measured according to the manufacturer's instructions.
HeLa nuclear extract, rich in HDAC activity, is included with the kit. Trichostatin A solution was used as a positive control and model inhibitor. Plates were read with excitation at 380 nm and emission at 440 nm on a TECAN Spark® multimode microplate reader. Histone deacetylase activity was measured according to manufacturer's instructions.

The next experiment deals with T1, hCA IX (Homo sapiens, UniProt Q16790).
T1 construct: made in house
Kind of experiment: stopped-flow CO2 hydrase assay, CA activation. In kind it is biochemical. The note with it: activation constant; mean from three assays, errors ±5%–10%.

In another experiment the target is T2, hCA I (Homo sapiens, UniProt P00915).
T2 construct: purchased
T2 sequence (P00915 whole entry): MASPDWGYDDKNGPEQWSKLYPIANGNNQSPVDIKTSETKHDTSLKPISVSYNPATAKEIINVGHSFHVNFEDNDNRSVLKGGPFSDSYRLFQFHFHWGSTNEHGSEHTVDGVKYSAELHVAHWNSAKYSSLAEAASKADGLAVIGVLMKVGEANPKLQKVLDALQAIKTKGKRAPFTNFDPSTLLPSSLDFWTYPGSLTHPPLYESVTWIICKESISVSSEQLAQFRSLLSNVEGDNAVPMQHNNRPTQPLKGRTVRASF
The experiment is described as follows: stopped-flow CO2 hydrase assay, CA activation. In kind it is biochemical. Conditions: for K A hCA I: activation constant, mean from three assays, errors ±5%–10%.

The target in the next experiment is T3, hCA VA (Homo sapiens, UniProt P35218).
T3 construct: made in house
T3 sequence (P35218 39-305): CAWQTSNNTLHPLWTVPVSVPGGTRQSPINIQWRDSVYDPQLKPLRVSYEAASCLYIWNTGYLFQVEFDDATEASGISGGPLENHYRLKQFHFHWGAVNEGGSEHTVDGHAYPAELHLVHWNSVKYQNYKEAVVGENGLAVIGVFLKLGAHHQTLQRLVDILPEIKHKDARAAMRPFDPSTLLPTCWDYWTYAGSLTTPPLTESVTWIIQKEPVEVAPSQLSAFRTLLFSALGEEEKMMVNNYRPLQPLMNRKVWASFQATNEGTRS
Kind of experiment: stopped-flow CO2 hydrase assay, CA activation. It is filed as biochemical. The note with it: for K A hCA VA: activation constant, mean from three assays, errors ±5%–10%. As to the method: (§1) . The potencies were reported as K A values in Table 1 and compared with the reference compound D‐Phe. AC50 curves are reported in the Supporting Information.
(§2) . The uncatalyzed rates were determined in the same manner and subtracted from the total observed rates. Stock solutions of the inhibitor (0.1 mM) were prepared in distilled–deionized water and dilutions up to 0.01 nM were done thereafter with the assay buffer. Inhibitor and enzyme solutions were preincubated together for 15 min at r.t. before the assay, to allow for the formation of the E–I complex. The inhibition constants were obtained by nonlinear least‐squares methods using PRISM 3 and the Cheng‐Prusoff equation [41] and represent the mean from at least three different determinations. Apart from commercial hCAs I and II, all CA isoforms were recombinant proteins obtained in house, as reported earlier.
as §2, with “prior to” for “before”, “least-squares” for “least‐squares”, “Cheng-Prusoff” for “Cheng‐Prusoff”, “[2]” for “[41]”

Another experiment addresses T4, hCA IV (Homo sapiens, UniProt P22748).
T4 construct: made in house
The experiment is described as follows: stopped-flow CO2 hydrase assay, CA activation. Conditions: for K A hCA IV: activation constant, mean from three assays, errors ±5%–10%. In kind it is biochemical. As to the method:
as §1, §2
as §2, with “prior to” for “before”, “least-squares” for “least‐squares”, “Cheng-Prusoff” for “Cheng‐Prusoff”, “[2]” for “[41]”

In the next experiment the target is T5, hCA VII (Homo sapiens, UniProt P43166).
T5 construct: made in house
T5 sequence (P43166 whole entry): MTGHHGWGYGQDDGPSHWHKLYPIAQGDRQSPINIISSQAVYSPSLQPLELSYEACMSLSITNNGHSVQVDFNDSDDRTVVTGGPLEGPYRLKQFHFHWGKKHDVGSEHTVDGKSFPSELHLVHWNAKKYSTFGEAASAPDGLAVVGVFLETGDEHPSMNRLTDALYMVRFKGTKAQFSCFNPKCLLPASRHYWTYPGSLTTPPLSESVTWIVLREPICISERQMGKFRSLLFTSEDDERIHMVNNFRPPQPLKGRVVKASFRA
Kind of experiment: stopped-flow CO2 hydrase assay, CA activation. In kind it is biochemical. Conditions: for K A hCA VII: activation constant, mean from three assays, errors ±5%–10%. As to the method: as §1, §2
as §2, with “prior to” for “before”, “least-squares” for “least‐squares”, “Cheng-Prusoff” for “Cheng‐Prusoff”, “[2]” for “[41]”

For experiment [2], the system named is CA activity in cortical and hippocampal brain homogenates. The experiment is described as follows: Ex vivo CA activity in brain homogenates after i.c.v. infusion (stopped-flow). Conditions: 50 nmol/µL, 5 µL i.c.v., 30 min after infusion; vehicle = 100%.
Procedure: (§3) Specifically, mice were euthanized 30 min after the i.c.v. infusion, their brains were collected, and hippocampi and frontal cortices were immediately dissected on ice and then individually homogenized in 1 mL of ice‐cold 20 mM Hepes buffer (pH 7.5).
The overall catalytic activity of CAs (K cat) of each individual preparation was measured with a stopped flow spectrophotometric method monitoring the physiological CO2 hydration reaction catalyzed by these enzymes [30]
Animals were killed 30 min after drug infusion, and the brain structures were immediately dissected on ice and homogenized. CA activity was measured with a stopped‐flow method. The mean CA activity measured in the group of control mice treated with vehicle was taken as 100%, the activities measured for animals treated with compounds were normalized to this value. Data are expressed as means ± S.E.M. of six–nine mice per experimental group. One‐way ANOVA and Bonferroni MCT, **p < 0.01 versus vehicle.
In the infusion days, a stainless‐steel injection micro‐needle (outer diameter 0.25 mm) connected through a polyethylene catheter to a 1000 µL Hamilton precision syringe was inserted into the cannulae previously implanted and lowered into the lateral cerebral ventricle (DV 2.4 mm). Then, 5 µL of a solution containing the testing compounds or vehicle were delivered using an infusion pump at 1 µL/min flow. The needle was left in place for one additional minute after each infusion to avoid efflux. Thirty minutes after drug injections, the animals were euthanized, their brain immediately removed, the cortices and hippocampi were rapidly dissected on ice, weighted, and stored at –80°C until use.
Animals pertaining to the control group received infusions of vehicle (physiological saline containing 1% DMSO (v/v)).
Brain tissues were homogenized in 1.0 mL of ice‐cold 20 mM Hepes buffer (pH 7.5). After centrifugation at 20,000g for 30 min, an Applied Photophysics stopped‐flow instrument was used for assaying the CA‐catalyzed CO2 hydration activity from the samples as previously described [23, 34]. […] The mean CA activity determined in the brain samples from the control group of mice treated with vehicle was set as 100% and all the individual calculated values were then expressed as a percentage of controls.
The target of a further experiment is T6, hCA II (Homo sapiens, UniProt P00918).
T6 construct: purchased
The experiment is described as follows: stopped-flow CO2 hydrase assay, CA activation. It is filed as biochemical. The note with it: for K A hCA II: activation constant, mean from three assays, errors ±5%–10%.

Another experiment relates to Male C57Bl6 mice. Kind of experiment: Novel object recognition (NOR) paradigm, memory consolidation. The note with it: for Discrimination index (DI): 5 µL i.c.v., retention test 24 h, vehicle −0.057 ± 0.069; for percentage of time spent exploring familiar vs novel object, retention test: 5 µL i.c.v. immediately after acquisition, retention test 24 h later. In kind it is in vivo. More on the design: key to Discrimination index (DI): DI = (tN − tF)/(tN + tF); novel vs familiar exploration time. As to the method: This set of experiments was designed to evaluate the impact of single reference compounds (D‐Phe and 19) as well as the dual acting (12 and 14) on recognition memory. These compounds were administered directly into the brain lateral ventricles immediately after the acquisition session to investigate their impact specifically on memory consolidation. […] Such a design avoids the use of amnestic drugs that could interfere with data interpretation and represents an advantage when studying the procognitive potential of novel compounds. The dose range and administration route were also chosen based on previous reports showing that the procognitive effects of CA and HDAC modulators rely on their action on centrally and not peripherally expressed enzymes. Moreover, the injection of the tested compounds directly into the lateral ventricles (i.c.v.) consents widespread drug distribution in the brain and at the same time minimizes potential interference of peripheral phenomena such as barriers crossing, protein binding, drug metabolism, that are highly influenced by specific drug characteristics such as size, solubility, charge. Therefore, the i.c.v. route represents an advantage in studies comparing the potency of compounds by ensuring precise control of drug concentrations in the target organ and excluding confounding factors related to peripheral pharmacokinetic mechanisms.
Figure 5 Dual modulation of CAs and HDACs potently boost recognition memory in mice. (A) Schematic drawing showing the sequence of the behavioral procedures: immediately after the acquisition phase mice received infusions (5 µL) of solutions containing either vehicle, the CA activator D‐Phe, the HDAC inhibitor 19 dual acting compounds 12 and 14 at 0.5, 5, or 50 nmol/µL concentrations. The retention test was performed 24 h later. (B) Percentages of time spent exploring the familiar (F) or novel (N) objects during the retention test. The dashed line indicates a theoretical means of 50%. Statistically significant differences determined by two‐way ANOVA and Bonferroni's MCT: ****p < 0.0001 F versus N. (C) Discrimination indexes calculated with the formula DI = (tN tF)/(tN + tF). Statistically significant differences determined by one‐way ANOVA and Bonferroni's MCT: *p < 0.05; **p < 0.01 versus vehicle‐treated group. In both graphics, data are expressed either as individual data points for each animal (scattered plot) znc means ± SEM represented by bar graphs. N = 6–9 animals by experimental group.
Male C57Bl6 mice were submitted to the stereotaxic surgery to implant a guide cannula into the brain lateral ventricles as described above. One week after the surgery, their behavior was assessed in an open‐field arena (60 × 70 cm and 30 cm high) constructed in white acrylic Plexiglass and placed in a sound‐attenuated room. The detailed experimental procedure is already published. The NOR protocol consists of three sessions: habituation, acquisition, and retention test separated by 24 h intertrial intervals. During habituation, the animals freely explored the empty arena for 10 min. Twenty‐four hours later, each animal was placed in the same position and facing the same direction into the test arena in the presence of two identical objects (gray plastic shapes such as cubes, cylinders, or pyramids 8 cm high) and left free to explore it for 5 min. […] The retention test session was performed 24 h after acquisition, during which, each mouse was again placed in the test arena for 5 min in the presence of one of the familiar object and a novel object. The position of the new objects (left/right) was randomized to prevent bias from order or place preference.

Experiment [3] concerns HDAC activity in hippocampal and cortical brain homogenates. The experiment is described as follows: Ex vivo HDAC residual activity in brain homogenates after i.c.v. infusion (fluorometric). Conditions: 50 nmol/µL, 5 µL i.c.v., 30 min after infusion; vehicle = 100%.
Procedure: as §3
Animals were killed 30 min after drug infusion, and the brain structures were immediately dissected on ice and homogenized. HDAC activity was measured with the fluorometric method. The HDAC mean activity of the control group mice was taken as 100%, % of the activities measured for animals treated with compounds were normalized to this value. Data are expressed as means ± S.E.M. of 6–13 mice per experimental group. One‐way ANOVA and Bonferroni MCT, ****p < 0.0001 versus vehicle‐treated group. […]
The residual enzymatic activity in brain tissues was measured using Fluor de Lys‐Green HDAC fluorometric activity assay kit purchased from Enzo Life Sciences (Farmingdale, NY). […] Measurements were performed using a TECAN Spark multimode microplate reader, set to a wavelength of 280 nm. Once the absorbance was measured, the concentration of the enzyme HDAC contained in the brain homogenates was calculated according to Lambert‐Beer's law. […] Fluorescence was measured at 380 nm and detected at 440 nm. Each test included a blank as a reference for minimal fluorescence, containing only buffer and substrate, thus lacking any protein component [49, 50]. […]
[4] abbreviates: mean from three assays, errors 5%–10%.
[5] abbreviates: supplement InChI file, given as KI.

T4 sequence (P22748 19-312): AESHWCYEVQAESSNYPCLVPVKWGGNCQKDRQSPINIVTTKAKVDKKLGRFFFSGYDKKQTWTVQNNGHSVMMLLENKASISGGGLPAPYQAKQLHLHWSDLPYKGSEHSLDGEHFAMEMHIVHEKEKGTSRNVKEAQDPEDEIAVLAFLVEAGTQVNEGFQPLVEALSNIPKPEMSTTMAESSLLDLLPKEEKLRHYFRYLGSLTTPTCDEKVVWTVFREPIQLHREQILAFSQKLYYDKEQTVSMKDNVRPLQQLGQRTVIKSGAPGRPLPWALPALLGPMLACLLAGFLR

The term EC50 denotes the concentration that produces a half-maximal response. For the compound `Nc1ccccc1NC(=O)c1ccc(NC(=O)NCCc2c[nH]cn2)cc1.O=C(O)C(F)(F)F` [Compound 12, 2‐(4‐{3‐[2‐(1H‐imidazol‐4‐yl)ethyl]ureido}benzamido)benzenaminium 2,2,2‐trifluoroacetate], a half-maximal response in experiment [1] (setting [4]) (EC50) required 2.8 µM. At hCA IX, the “K A hCA IX” value stood at 68.8 µM. In addition, the “K A hCA I” value on hCA I is given as 75.4 µM. For the same compound, on hCA VA, the “K A hCA VA” value is listed as above 10000 µM. Moreover, on hCA IV, the “K A hCA IV” value stood at 23.0 µM. For the same compound, the “K A hCA VII” value at hCA VII was determined as 32.0 µM. In addition, in experiment [2], the “CA activity (%) in cortical homogenates versus vehicle” value was “significantly increased”. In [2], the “CA activity (%) in hippocampal homogenates versus vehicle” value is reported as “significantly increased”. For the same compound, the “K A hCA II” value on hCA II was 66.8 µM. Also, the “Discrimination index (DI)” value is given as −0.077 ± 0.078 with Male C57Bl6 mice (0.5 nmol/µL), 0.288 ± 0.110 in the experiment on Male C57Bl6 mice (5 nmol/µL) and 0.313 ± 0.173 in the experiment on Male C57Bl6 mice (50 nmol/µL). Also, the “percentage of time spent exploring familiar vs novel object, retention test” value (“percentage” for short) with Male C57Bl6 mice (5 nmol/μL) and in the experiment with Male C57Bl6 mice (50 nmol/μL) was “spent significantly more time exploring the novel object” throughout.
Regarding `Nc1cc(F)ccc1NC(=O)c1ccc(NC(=O)NCCc2c[nH]cn2)cc1.[O-][Cl+3]([O-])([O-])O.[O-][Cl+3]([O-])([O-])O` [Compound 14, 4‐{3‐[2‐(1H‐Imidazol‐4‐yl)Ethyl]Ureido}‐N‐(2‐Amino‐4‐Fluorophenyl)Benzamide Diperchlorate], a half-maximal effect in [1] (setting [4]) (EC50) was put at 5.3 µM. In addition, the “K A hCA IX” value on hCA IX is above 10000 µM. The “fold more potent activator of hCA I” value on hCA I (K A of 14 compared with 12) is on record as 1.4 fold. On hCA I, the “K A hCA I” value stood at 53.8 µM. For the same compound, on hCA VA, the “K A hCA VA” value is given as 37.9 µM. The “K A hCA IV” value on hCA IV came to 49.1 µM. The “fold more potent activator of hCA VII” value at hCA VII (K A of 14 compared with 12) is listed as 1.2 fold. In addition, on hCA VII, the “K A hCA VII” value is listed as 26.1 µM. Also, the “CA activity (%) in cortical homogenates versus vehicle” value in experiment [2] is on record as “significantly increased”. Besides, the “CA activity (%) in hippocampal homogenates versus vehicle” value in [2] is on record as “significantly increased”. On hCA II (K A of 14 compared with 12), the “fold more potent activator of hCA II” value was 1.3 fold. Also, at hCA II, the “K A hCA II” value came to 49.5 µM. For the same compound, the “Discrimination index (DI)” value in the experiment on Male C57Bl6 mice (0.5 nmol/µL) is −0.026 ± 0.274; in the experiment with Male C57Bl6 mice (5 nmol/µL), 0.317 ± 0.132; in the experiment with Male C57Bl6 mice (50 nmol/µL) it was 0.224 ± 0.223. Besides, the “percentage” value with Male C57Bl6 mice (5 nmol/μL) and with Male C57Bl6 mice (50 nmol/μL) was “spent significantly more time exploring the novel object” each time.
Regarding `Nc1ccccc1NC(=O)c1ccc(NCC(=O)NCCc2ccccc2)cc1` [Compound 19, N‐(2‐Aminophenyl)‐4‐{[2‐Oxo‐2‐(Phenethylamino)Ethyl]Amino}Benzamide], the midpoint of the response in experiment [1] (setting [4]), the EC50, lay at 14.2 µM. For the same compound, in experiment [3], the “HDAC residual activity (%) in cortical homogenates versus vehicle” value is listed as “significant reduction” and the “HDAC residual activity (%) in hippocampal homogenates versus vehicle” value was “significant reduction”. For the same compound, the “K A hCA VA” value on hCA VA is on record as above 10000 µM. The same compound displayed a KA (activation constant) on hCA VA (setting [5]) above 10 mM. Also, the “K A hCA IV” value at hCA IV is above 10000 µM. Also, the activation constant KA on hCA IV (setting [5]) was above 10 mM. Also, the “K A hCA VII” value at hCA VII is on record as above 10000 µM. Further, the activation constant KA on hCA VII (setting [5]) is above 10 mM. For the same compound, in experiment [2], the “CA activity (%) in cortical homogenates versus vehicle” value is given as “no differences were observed” and the “CA activity (%) in hippocampal homogenates versus vehicle” value was “no differences were observed”. Further, the “percentage” value with Male C57Bl6 mice (50 nmol/μL) is reported as “promnesic effect”.
`N[C@H](Cc1ccccc1)C(=O)O` [D‐Phe, reference compound]: the “K A hCA I” value at hCA I was found to be 86.0 µM. The “K A hCA IV” value at hCA IV is 49.3 µM. For the same compound, in experiment [2], the “CA activity (%) in cortical homogenates versus vehicle” value is “significantly increased” and the “CA activity (%) in hippocampal homogenates versus vehicle” value is “significantly increased”. Also, on hCA II, the “K A hCA II” value was 0.035 µM. The “percentage” value with Male C57Bl6 mice (50 nmol/μL) is “promnesic effect”.
For the compound `CC(/C=C/C(=O)NO)=C\[C@@H](C)C(=O)c1ccc(N(C)C)cc1` [Trichostatin A, reference compound], the half-maximal effective concentration (EC50) in experiment [1] (reference inhibitor) came out at 0.0018 µM.

The record behind these values is paper PMC12174897, “Hitting Two Birds With One Stone: Dual Modulation of Brain Carbonic Anhydrases and Histone Deacetylases Boosts Memory Consolidation” (Archiv Der Pharmazie, 2025).
